Results published in ChEMBL document CHEMBL1129257, “Potent inhibition of tumor necrosis factor-alpha production by tetrafluorothalidomide and tetrafluorophthalimides” (J Med Chem, 1996).

These molecules were tested against T1, Tumor necrosis factor (Homo sapiens, UniProt P01375) (assay: Inhibitory activity against TNF-alpha production). Conditions: not given.
Format: functional

T1 sequence (P01375 whole entry): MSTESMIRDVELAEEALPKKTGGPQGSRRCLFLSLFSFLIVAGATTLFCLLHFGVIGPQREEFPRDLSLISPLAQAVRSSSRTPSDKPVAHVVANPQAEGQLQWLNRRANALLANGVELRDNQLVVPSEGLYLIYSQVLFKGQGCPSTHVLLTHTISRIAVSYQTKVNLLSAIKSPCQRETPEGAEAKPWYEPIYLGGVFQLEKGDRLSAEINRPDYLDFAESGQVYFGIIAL

Compound | IC50
O=C1CCC(N2C(=O)c3c(F)c(F)c(F)c(F)c3C2=O)C(=O)N1 (racemic) | 400 nM

What follows are molecules tested against T1, Tumor necrosis factor (assay: Inhibition of TNF-alpha production from human monocytes upon stimulation with bacterial lipopolysaccharide (LPS) at a concentration of 1 uM). Conditions: values are per cent of control.
Format: functional

Compound | response, % of control
CC(C)c1cccc(C(C)C)c1N1C(=O)c2c(Cl)c(Cl)c(Cl)c(Cl)c2C1=O | 70%
O=C1CCC(N2C(=O)c3c(Br)c(Br)c(Br)c(Br)c3C2=O)C(=O)N1 (racemic) | 53%
COC(=O)CC(c1ccc(OC)c(OC)c1)N1C(=O)c2c(F)c(F)c(F)c(F)c2C1=O (racemic) | -5%
O=C1c2c(F)c(F)c(F)c(F)c2C(=O)N1c1ccccc1 | 65%
CC(C)c1cccc(C(C)C)c1N1C(=O)c2c(F)c(F)c(F)c(F)c2C1=O | 5%
CC(C)c1cccc(C(C)C)c1N1C(=O)c2c(Br)c(Br)c(Br)c(Br)c2C1=O | 62%
O=C1CCC(N2C(=O)c3c(Cl)c(Cl)c(Cl)c(Cl)c3C2=O)C(=O)N1 (racemic) | 75%
CCc1cccc(CC)c1N1C(=O)c2c(F)c(F)c(F)c(F)c2C1=O | -1%
O=C1CCC(N2C(=O)c3c(F)c(F)c(F)c(F)c3C2=O)C(=O)N1 (racemic) | 4%
Cc1cccc(C)c1N1C(=O)c2c(F)c(F)c(F)c(F)c2C1=O | 3%
CC(C)(C)c1cccc(C(C)(C)C)c1N1C(=O)c2c(F)c(F)c(F)c(F)c2C1=O | -2%

These molecules were tested against T1, Tumor necrosis factor (assay: Inhibition of TNF-alpha production from human monocytes upon stimulation with bacterial lipopolysaccharide (LPS) at a concentration of 100 uM,). Conditions: not given.
Format: functional

Compound | inhibition
COC(=O)CC(c1ccc(OC)c(OC)c1)N1C(=O)c2c(F)c(F)c(F)c(F)c2C1=O (racemic) | 55%

The molecules below were run against T1, Tumor necrosis factor (assay: Inhibition of TNF-alpha production from human monocytes upon stimulation with bacterial lipopolysaccharide (LPS) at a concentration of 100 nM). Conditions: values are per cent of control.
Format: functional

Compound | response, % of control
CC(C)c1cccc(C(C)C)c1N1C(=O)c2c(Cl)c(Cl)c(Cl)c(Cl)c2C1=O | 75%
O=C1CCC(N2C(=O)c3c(Br)c(Br)c(Br)c(Br)c3C2=O)C(=O)N1 (racemic) | 70%
O=C1c2c(F)c(F)c(F)c(F)c2C(=O)N1c1ccccc1 | 65%
CC(C)c1cccc(C(C)C)c1N1C(=O)c2c(F)c(F)c(F)c(F)c2C1=O | 40%
CC(C)c1cccc(C(C)C)c1N1C(=O)c2c(Br)c(Br)c(Br)c(Br)c2C1=O | 80%
O=C1CCC(N2C(=O)c3c(Cl)c(Cl)c(Cl)c(Cl)c3C2=O)C(=O)N1 (racemic) | 80%
O=C1CCC(N2C(=O)c3c(F)c(F)c(F)c(F)c3C2=O)C(=O)N1 (racemic) | 85%
Cc1cccc(C)c1N1C(=O)c2c(F)c(F)c(F)c(F)c2C1=O | 62%
CC(C)(C)c1cccc(C(C)(C)C)c1N1C(=O)c2c(F)c(F)c(F)c(F)c2C1=O | 40%

The molecules below were run against T1, Tumor necrosis factor (assay: Inhibition of TNF-alpha production from human monocytes upon stimulation with bacterial lipopolysaccharide (LPS) at a concentration of 100 nM,). Conditions: not given.
Format: functional

Compound | inhibition
CCc1cccc(CC)c1N1C(=O)c2c(F)c(F)c(F)c(F)c2C1=O | 43%

These molecules were tested against T1, Tumor necrosis factor (assay: Inhibition of TNF-alpha production from human monocytes upon stimulation with bacterial lipopolysaccharide (LPS) at a concentration of 215 uM,). Conditions: not given.
Format: functional

Compound | inhibition
COC(=O)CC(c1ccc(OC)c(OC)c1)N1C(=O)c2c(F)c(F)c(F)c(F)c2C1=O (racemic) | 30%

These molecules were tested against T1, Tumor necrosis factor (assay: Inhibition of TNF-alpha production from human monocytes upon stimulation with bacterial lipopolysaccharide (LPS) at a concentration of 215 nM). Conditions: values are per cent of control.
Format: functional

Compound | response, % of control
CC(C)c1cccc(C(C)C)c1N1C(=O)c2c(Cl)c(Cl)c(Cl)c(Cl)c2C1=O | 80%
O=C1CCC(N2C(=O)c3c(Br)c(Br)c(Br)c(Br)c3C2=O)C(=O)N1 (racemic) | 60%
O=C1c2c(F)c(F)c(F)c(F)c2C(=O)N1c1ccccc1 | 65%
CC(C)c1cccc(C(C)C)c1N1C(=O)c2c(F)c(F)c(F)c(F)c2C1=O | 10%
CC(C)c1cccc(C(C)C)c1N1C(=O)c2c(Br)c(Br)c(Br)c(Br)c2C1=O | 70%
O=C1CCC(N2C(=O)c3c(Cl)c(Cl)c(Cl)c(Cl)c3C2=O)C(=O)N1 (racemic) | 90%
O=C1CCC(N2C(=O)c3c(F)c(F)c(F)c(F)c3C2=O)C(=O)N1 (racemic) | 70%
Cc1cccc(C)c1N1C(=O)c2c(F)c(F)c(F)c(F)c2C1=O | 50%
CC(C)(C)c1cccc(C(C)(C)C)c1N1C(=O)c2c(F)c(F)c(F)c(F)c2C1=O | 30%

These molecules were tested against T1, Tumor necrosis factor (assay: Inhibition of TNF-alpha production from human monocytes upon stimulation with bacterial lipopolysaccharide (LPS) at a concentration of 215 nM,). Conditions: not given.
Format: functional

Compound | inhibition
CCc1cccc(CC)c1N1C(=O)c2c(F)c(F)c(F)c(F)c2C1=O | 20%

What follows are molecules tested against T1, Tumor necrosis factor (assay: Inhibition of TNF-alpha production from human monocytes upon stimulation with bacterial lipopolysaccharide (LPS) at a concentration of 464 uM). Conditions: not given.
Format: functional

Compound | inhibition
COC(=O)CC(c1ccc(OC)c(OC)c1)N1C(=O)c2c(F)c(F)c(F)c(F)c2C1=O (racemic) | 10%

These molecules were tested against T1, Tumor necrosis factor (assay: Inhibition of TNF-alpha production from human monocytes upon stimulation with bacterial lipopolysaccharide (LPS) at a concentration of 464 nM). Conditions: values are per cent of control.
Format: functional

Compound | response, % of control
CC(C)c1cccc(C(C)C)c1N1C(=O)c2c(Cl)c(Cl)c(Cl)c(Cl)c2C1=O | 70%
O=C1CCC(N2C(=O)c3c(Br)c(Br)c(Br)c(Br)c3C2=O)C(=O)N1 (racemic) | 62%
O=C1c2c(F)c(F)c(F)c(F)c2C(=O)N1c1ccccc1 | 70%
CC(C)c1cccc(C(C)C)c1N1C(=O)c2c(F)c(F)c(F)c(F)c2C1=O | 2%
CC(C)c1cccc(C(C)C)c1N1C(=O)c2c(Br)c(Br)c(Br)c(Br)c2C1=O | 53%
O=C1CCC(N2C(=O)c3c(Cl)c(Cl)c(Cl)c(Cl)c3C2=O)C(=O)N1 (racemic) | 80%
O=C1CCC(N2C(=O)c3c(F)c(F)c(F)c(F)c3C2=O)C(=O)N1 (racemic) | 40%
Cc1cccc(C)c1N1C(=O)c2c(F)c(F)c(F)c(F)c2C1=O | 30%
CC(C)(C)c1cccc(C(C)(C)C)c1N1C(=O)c2c(F)c(F)c(F)c(F)c2C1=O | 15%

Each molecule was assayed against T1, Tumor necrosis factor (assay: Inhibition of TNF-alpha production from human monocytes upon stimulation with bacterial lipopolysaccharide (LPS) at a concentration of 464 nM,). Conditions: not given.
Format: functional

Compound | inhibition
CCc1cccc(CC)c1N1C(=O)c2c(F)c(F)c(F)c(F)c2C1=O | 2%

What follows are molecules tested against T1, Tumor necrosis factor (assay: Inhibition of TNF-alpha production from human monocytes upon stimulation with bacterial lipopolysaccharide (LPS) at a concentration of 200 uM). Conditions: not given.
Format: functional

Compound | inhibition
O=C1CCC(N2C(=O)c3ccccc3C2=O)C(=O)N1 (stereo unspecified) | 64%
